The subject of series [1] is L-NAME-treated male Wistar rats. In words: Serum nitrite/nitrate in L-NAME-treated rats. The settings on record: mean ± standard error; 3 weeks oral gavage; lisinopril 10 mg/kg, peptide 30 mg/kg BW/day. Type of series: in vivo, rat. The protocol: (§1) After 1 week of acclimation, 25 male Wistar rats were separated randomly into two groups of control rat (NC; n = 5) with distilled water and L-NAME-treated rat (n = 20). At this step, distilled water was orally gavaged to NC rat at 1 mL/100 g BW. L-NAME at a final concentration of 40 mg/kg BW in 1 mL distilled water was orally gavage to induce hypertension in rat at a dose of 40 mg/kg BW for 3 weeks. Thereafter, L-NAME treated rats were randomly classified into the following four groups: L-NAME untreated rat (HT; n = 5); L-NAME + lisinopril rat (HTD; n = 5); L-NAME + peptide 1 at 30 mg/kg rat (HTP1; n = 5); and L-NAME + peptide 2 at 30 mg/kg rat (HTP2; n = 5); for the remaining 3 weeks. NC (n = 5) was still orally gavaged with distilled water. The peptides were diluted in distilled water to obtain a final concentration of 30 mg/1 mL and immediately gavaged to rat at a dose of 30 mg/kg BW/day). Lisinopril was diluted in distilled water to obtain a final concentration of 10 mg/1 mL and immediately orally gavaged to rat at a dose of 10 mg/kg BW/day. At the end of the experiment, each rat was fasted for approximately 12–16 h and euthanized with CO2 inhalation. […] The separated serum was collected and preserved at − 80 °C until further analysis. Then, the liver, heart, spleen, and kidneys were collected, trimmed, washed with normal saline, wiped with filter paper, and weighed.
(§2) The levels of nitrite and nitrate, which are metabolites of nitric oxide (NO), were measured using 50 µl of rat serum utilizing the calorimetric method (Nitrite/nitrate Kit, Sigma-Aldrich, 2 Science Park Dr, SG), according to company protocol. Angiotensin II peptide levels were quantified by using EIA kits (Angiotensin II EIA, Sigma-Aldrich, MO, USA), as per the manufacturer’s instructions).

Series [2] shares this test system. Kind of series: Serum angiotensin II peptide (EIA) in L-NAME-treated rats. The format is in vivo, rat. The settings on record: median (interquartile range); 3 weeks oral gavage; lisinopril 10 mg/kg, peptides 30 mg/kg BW/day. The protocol: After 1 week of acclimation, 25 male Wistar rats were separated randomly into two groups of control rat (NC; n = 5) with distilled water and L-NAME-treated rat (n = 20). At this step, distilled water was orally gavaged to NC rat at 1 mL/100 g BW. L-NAME at a final concentration of 40 mg/kg BW in 1 mL distilled water was orally gavage to induce hypertension in rat at a dose of 40 mg/kg BW for 3 weeks. Thereafter, L-NAME treated rats were randomly classified into the following four groups: L-NAME untreated rat (HT; n = 5); L-NAME + lisinopril rat (HTD; n = 5); L-NAME + peptide 1 at 30 mg/kg rat (HTP1; n = 5); and L-NAME + peptide 2 at 30 mg/kg rat (HTP2; n = 5); for the remaining 3 weeks. NC (n = 5) was still orally gavaged with distilled water. The peptides were diluted in distilled water to obtain a final concentration of 30 mg/1 mL and immediately gavaged to rat at a dose of 30 mg/kg BW/day). […]
as §2

Series [3] has the same test system. Kind of series: Serum lipid profile, glucose, kidney and liver function and ORAC in L-NAME-treated rats. Type of series: in vivo, rat. The settings on record: mean, 3 weeks oral gavage, lisinopril 10 mg/kg BW/day, peptides 30 mg/kg BW/day, n = 5. The procedure:
as §1
One thousand microlite of serum was used for measuring the lipid profiles, including total cholesterol, triglyceride (TG), low-density lipoprotein (LDL)-cholesterol (C), high-density lipoprotein (HDL)-C, glucose levels, kidney (blood urea nitrogen and creatinine concentrations) and liver function [alanine aminotransaminase (ALT), aspartate transaminase (AST), and alkaline phosphatase ([…])] parameters using the Cobas 6800/8800 systems (Roche Group, Switzerland). ORAC in rat serum was measured with a fluorescent microplate reader at Ex/Em = 480/520 nm, as previously mentioned.

Series [4] shares this test system. Kind of series: Body weight of L-NAME-treated rats. Type of series: in vivo, rat. The settings on record: vs L-NAME-treated rats; 3 weeks treatment. The procedure: as §1
For series [5] the test system is unchanged. In words: Organ weights of L-NAME-treated rats. The format is in vivo, rat. The settings on record: vs NC group; after 3 weeks treatment. The procedure:
as §1

The test system is the same in series [6]. Kind of series: Platelet count and white blood cell levels of L-NAME-treated rats. The format is in vivo, rat. The settings on record: effect of treatment in the L-NAME treated group; 3 weeks. The protocol:
as §1

The target of series [7] is T1, ACE (Homo sapiens, UniProt P12821).
T1 construct: purchased Dojindo Molecular Technology Inc., Kumamoto, Japan
In words: ACE inhibitory activity assay kit. Type of series: biochemical. The settings on record: synthetic peptides; captopril positive control; read-out: IC50 ACE inhibition. The protocol:
ACE inhibitory activity assay kit (Dojindo Molecular Technology Inc., Kumamoto, Japan) was used for the measurement of ACE inhibition in proteins derived from basil leaves before and after digestion according to the company manual. Briefly, 10 µl of each sample, substrate buffer, and enzyme mixture were mixed and incubated in 96-well plate at 37 °C for 1 h before measuring ACE inhibition at 450 nm of absorption (A). The ACE inhibitory activity was calculated and calculated as follows: inhibitory activity (%) = [(Awithout sample − Awith sample)/(Awithout sample − Ablank)] × 100.

Series [8] has as its target Angiotensin-converting enzyme (UniProt P12821).

Data on 17 molecules can be found in article PMC10410819, “Potential antihypertensive activity of novel peptides from green basil leaves” (BMC Complementary Medicine and Therapies, 2023).

Residues, ends and D or L forms follow the SMILES beside them. No end group written: not given here.

T1 sequence (P12821 30-1306, species assumed): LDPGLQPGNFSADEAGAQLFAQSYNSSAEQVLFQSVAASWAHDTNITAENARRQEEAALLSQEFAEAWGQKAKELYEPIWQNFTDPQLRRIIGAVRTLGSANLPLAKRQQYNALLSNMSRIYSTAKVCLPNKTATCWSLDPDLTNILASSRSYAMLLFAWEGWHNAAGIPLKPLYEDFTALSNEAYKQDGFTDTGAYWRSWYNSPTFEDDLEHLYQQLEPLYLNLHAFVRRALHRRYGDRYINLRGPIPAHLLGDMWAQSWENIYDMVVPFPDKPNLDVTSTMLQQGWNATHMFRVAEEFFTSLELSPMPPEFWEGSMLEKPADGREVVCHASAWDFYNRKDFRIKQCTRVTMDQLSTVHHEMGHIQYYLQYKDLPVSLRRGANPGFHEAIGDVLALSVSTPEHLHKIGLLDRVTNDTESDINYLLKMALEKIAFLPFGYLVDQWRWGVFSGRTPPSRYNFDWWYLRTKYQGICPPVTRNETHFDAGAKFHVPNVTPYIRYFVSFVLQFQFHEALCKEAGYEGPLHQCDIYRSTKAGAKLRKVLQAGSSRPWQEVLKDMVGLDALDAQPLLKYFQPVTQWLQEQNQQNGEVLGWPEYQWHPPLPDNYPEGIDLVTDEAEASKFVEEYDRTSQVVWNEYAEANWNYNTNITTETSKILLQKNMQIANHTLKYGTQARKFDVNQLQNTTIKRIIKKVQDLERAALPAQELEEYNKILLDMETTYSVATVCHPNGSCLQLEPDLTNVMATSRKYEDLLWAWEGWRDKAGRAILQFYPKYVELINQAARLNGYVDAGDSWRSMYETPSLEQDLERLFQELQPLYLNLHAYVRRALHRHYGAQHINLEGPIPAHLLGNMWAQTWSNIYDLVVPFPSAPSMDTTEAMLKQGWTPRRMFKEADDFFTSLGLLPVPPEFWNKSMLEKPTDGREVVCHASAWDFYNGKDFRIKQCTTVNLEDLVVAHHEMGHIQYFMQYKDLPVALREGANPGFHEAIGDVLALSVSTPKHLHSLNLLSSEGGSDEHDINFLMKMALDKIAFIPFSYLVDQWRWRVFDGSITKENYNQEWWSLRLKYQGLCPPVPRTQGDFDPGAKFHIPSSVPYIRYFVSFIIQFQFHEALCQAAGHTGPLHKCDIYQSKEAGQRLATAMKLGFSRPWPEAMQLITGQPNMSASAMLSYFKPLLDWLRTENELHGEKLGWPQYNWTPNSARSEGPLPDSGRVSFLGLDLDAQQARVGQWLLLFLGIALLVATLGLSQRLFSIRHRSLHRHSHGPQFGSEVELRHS
Chain of Angiotensin-converting enzyme (P12821 30-1256): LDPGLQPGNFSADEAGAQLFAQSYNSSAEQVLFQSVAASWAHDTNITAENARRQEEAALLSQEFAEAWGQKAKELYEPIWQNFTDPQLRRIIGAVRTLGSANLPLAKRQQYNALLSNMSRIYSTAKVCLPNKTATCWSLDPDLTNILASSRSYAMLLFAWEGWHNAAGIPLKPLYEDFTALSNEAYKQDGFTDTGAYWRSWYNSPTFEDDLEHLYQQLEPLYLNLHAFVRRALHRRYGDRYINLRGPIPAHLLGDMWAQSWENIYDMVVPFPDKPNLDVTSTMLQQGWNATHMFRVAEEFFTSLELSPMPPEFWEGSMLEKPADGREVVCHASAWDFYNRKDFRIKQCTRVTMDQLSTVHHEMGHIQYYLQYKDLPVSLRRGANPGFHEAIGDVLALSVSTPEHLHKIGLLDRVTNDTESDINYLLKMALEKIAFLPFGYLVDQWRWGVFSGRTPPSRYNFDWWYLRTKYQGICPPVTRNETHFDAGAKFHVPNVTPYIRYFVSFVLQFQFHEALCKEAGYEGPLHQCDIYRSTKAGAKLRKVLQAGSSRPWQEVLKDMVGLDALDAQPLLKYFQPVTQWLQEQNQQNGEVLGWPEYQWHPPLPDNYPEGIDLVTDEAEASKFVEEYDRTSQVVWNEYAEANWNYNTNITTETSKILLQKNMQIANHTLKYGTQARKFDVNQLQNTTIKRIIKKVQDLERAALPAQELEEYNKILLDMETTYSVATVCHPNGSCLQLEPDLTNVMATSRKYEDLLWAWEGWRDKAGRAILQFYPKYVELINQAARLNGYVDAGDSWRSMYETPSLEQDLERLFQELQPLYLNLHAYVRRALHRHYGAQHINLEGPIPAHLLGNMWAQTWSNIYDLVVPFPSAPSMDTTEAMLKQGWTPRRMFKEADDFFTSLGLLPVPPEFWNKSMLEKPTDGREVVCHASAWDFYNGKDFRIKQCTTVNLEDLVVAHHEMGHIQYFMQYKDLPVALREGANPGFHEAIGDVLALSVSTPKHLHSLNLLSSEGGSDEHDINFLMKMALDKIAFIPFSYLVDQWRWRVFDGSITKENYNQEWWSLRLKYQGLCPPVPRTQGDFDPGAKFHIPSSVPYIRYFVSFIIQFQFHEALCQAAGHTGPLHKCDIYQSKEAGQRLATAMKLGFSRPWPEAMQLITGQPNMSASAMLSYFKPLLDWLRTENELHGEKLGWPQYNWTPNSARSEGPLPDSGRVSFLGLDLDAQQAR

For the molecule `NCCCC[C@H](N[C@@H](CCc1ccccc1)C(=O)O)C(=O)N1CCC[C@H]1C(=O)O` [Lisinopril], in series [1], the “serum concentration of nitrate” value stood at 15.05 ± 1.95 ng/µL; the “serum concentration of nitrite” value is 16.17 ± 2.99 ng/µL; the “serum concentration of total nitrate and nitrite (NOx)” value is 31.22 ± 4.94 ng/µL. The “serum concentration of AGE II” value in series [2] is 5.19 (4.82) pg/mL. In addition, the ORAC in series [3] (rat serum) is recorded as 0.19 µmol TE/dl. Also, in series [3] (serum ratio), the Cho/HDL is recorded as 2.69 and the LDL/HDL came out at 0.22. In addition, in series [3] (serum), the ALP was 129.75 U/L, the ALT turned out to be 41.50 U/L, the AST is on record as 67.75 U/L and the BUN is 19.83 mg/dL. In series [3] (serum), this molecule yielded a Chol of 86.25 mg/dL, a Glucose of 263.00 mg/dL, an HDL of 32.00 mg/dL and an LDL of 7.00 mg/dL. Further, in series [3] (serum), the Tri was 179.25 mg/dL and the VLDL came to 35.75 mg/dL. In addition, the “effect on rat BWs” value in series [4] is given as “not significantly affected”. The “weight of the livers” value in series [5] is “significantly lower”. For the same molecule, the “platelet count and white blood cell levels” value in series [6] is “did not affect”.

The term IC50 denotes the concentration needed to halve the response being measured. For the molecule `N[C@@H](Cc1ccc(O)cc1)C(=O)N[C@@H](CO)C(=O)N[C@@H](Cc1ccccc1)C(=O)O` [Tyr-Ser-Phe] (H-Tyr-Ser-Phe-OH; N-terminus and C-terminus assumed), the IC50 in series [7] is 44.2 µM.

Take DLSSAP [Asp-Leu-Ser-Ser-Ala-Pro]: in series [3] (serum), the ALP amounted to 135.00 U/L, the ALT stood at 31.50 U/L, the AST worked out at 67.00 U/L and the BUN was found to be 19.70 mg/dL. Also, the “weight of the livers” value in series [5] is listed as “significantly lower”. For the same molecule, in series [7], the IC50 was found to be 4.75 µM.

In series [3] (serum), DSVSASP [Asp-Ser-Val-Ser-Ala-Ser-Pro] yielded an ALP of 159.00 U/L, an ALT of 38.50 U/L, an AST of 74.00 U/L and a BUN of 20.33 mg/dL. For the same molecule, the “weight of the livers” value in series [5] is recorded as “significantly lower”. For the same molecule, the IC50 in series [7] came to 117 µM.

As to “EGSGKGVR [Glu-Gly-Ser-Gly-Lys-Gly-Val-Arg]”, in series [7], the IC50 turned out to be 87.2 µM.

Turning to “HCGDGDAPY [His-Cys-Gly-Asp-Gly-Asp-Ala-Pro-Tyr]”, the IC50 in series [7] stood at 103 µM.

For HVLSA [His-Val-Leu-Ser-Ala], in series [7], the IC50 was found to be 10 µM.

“LDSKHEAP [Leu-Asp-Ser-Lys-His-Glu-Ala-Pro]”: in series [7], the IC50 came out at 121 µM.

Consider “PTTKTNVPPHF [Pro-Thr-Thr-Lys-Thr-Asn-Val-Pro-Pro-His-Phe]”, for which the IC50 in series [7] was 119 µM.

Tyr-Ser-Phe (peptide) displayed an IC50 (µM) ACE inhibition (ACE inhibitory activity assay kit, absorbance at 450 nM) in series [8] of 44.2 µM.

On to DLSSAP [Asp-Leu-Ser-Ser-Ala-Pro], for which, in series [8], the IC50 (µM) ACE inhibition (ACE inhibitory activity assay kit, absorbance at 450 nM) is 4.75 µM.

Consider EGSGKGVR [Glu-Gly-Ser-Gly-Lys-Gly-Val-Arg], for which the IC50 (µM) ACE inhibition (ACE inhibitory activity assay kit, absorbance at 450 nM) in series [8] was 87.2 µM.

In series [8], DSVSASP [Asp-Ser-Val-Ser-Ala-Ser-Pro] had an IC50 (µM) ACE inhibition (ACE inhibitory activity assay kit, absorbance at 450 nM) of 117 µM.

In turn, HCGDGDAPY [His-Cys-Gly-Asp-Gly-Asp-Ala-Pro-Tyr] returned an IC50 (µM) ACE inhibition (ACE inhibitory activity assay kit, absorbance at 450 nM) in series [8] of 103 µM.

With LDSKHEAP [Leu-Asp-Ser-Lys-His-Glu-Ala-Pro], the IC50 (µM) ACE inhibition (ACE inhibitory activity assay kit, absorbance at 450 nM) in series [8] was found to be 121 µM.

In the case of HVLSA [His-Val-Leu-Ser-Ala], the IC50 (µM) ACE inhibition (ACE inhibitory activity assay kit, absorbance at 450 nM) in series [8] amounted to 10 µM.

For the molecule PTTKTNVPPHF [Pro-Thr-Thr-Lys-Thr-Asn-Val-Pro-Pro-His-Phe], the IC50 (µM) ACE inhibition (ACE inhibitory activity assay kit, absorbance at 450 nM) in series [8] worked out at 119 µM.
